Starred links: 1 amine or outer side, 2 acyl side, 3 side chain; linkers in the order of their positions; H or OH if unused. Residues, ends and D or L forms follow the SMILES beside them. Groups on a side chain read outwards from the residue. *: point of attachment. Undecanoyl(11-OPh(4-COOH)) = O=C(O)c1ccc(OCCCCCCCCCCC(=O)*)cc1; Decanoyl(10-O(3-COOH-Ph)) = O=C(O)c1cccc(OCCCCCCCCCC(=O)*)c1; γGlu = O=C(O)[C@H](CCC(=O)[*:2])N[*:1]; AEEA = NCCOCCOCC(=O)O

The target of the first test is T1, human GLP-1 receptor (Homo sapiens, UniProt P43220).
T1 construct: expressed in transfected cells; host or cells: membranes of BHK cells (parent BHKTS13), clone FCW467-12A
T1 sequence (P43220 24-463): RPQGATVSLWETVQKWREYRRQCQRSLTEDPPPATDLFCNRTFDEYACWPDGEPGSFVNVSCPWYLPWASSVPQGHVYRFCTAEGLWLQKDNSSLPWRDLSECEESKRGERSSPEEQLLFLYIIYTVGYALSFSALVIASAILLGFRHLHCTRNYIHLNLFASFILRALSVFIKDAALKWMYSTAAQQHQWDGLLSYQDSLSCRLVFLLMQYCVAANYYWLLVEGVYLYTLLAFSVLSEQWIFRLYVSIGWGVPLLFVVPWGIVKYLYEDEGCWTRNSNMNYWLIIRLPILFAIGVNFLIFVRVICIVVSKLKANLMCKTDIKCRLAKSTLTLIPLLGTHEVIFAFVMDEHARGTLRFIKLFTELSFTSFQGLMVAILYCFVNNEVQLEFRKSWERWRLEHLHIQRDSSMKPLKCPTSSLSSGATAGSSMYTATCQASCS
As to the kind of experiment: GLP-1 receptor binding, competitive binding assay with 125I-GLP-1 on isolated membranes (SPA). Conditions: GLP-1 receptor binding High HSA IC50 (nM), high HSA (2.0% (w/v) final assay concentration).
Description: The receptor binding is reported as the concentration at which half of the labelled ligand is displaced from the receptor, the IC50 value.
Buffer 1 consisted of 20 mM Na-HEPES plus 10 mM EDTA and pH was adjusted to 7.4. Buffer 2 consisted of 20 mM Na-HEPES plus 0.1 mM EDTA and pH was adjusted to 7.4. Assay buffer consisted of 50 mM HEPES supplemented with 5 mM EGTA, 5 mM MgCl2, 0.005% w/v Tween 20 and pH was adjusted to 7.4. An 8% albumin stock consisted of HSA dissolved at 8% (w/v) in assay buffer. An 0.02% albumin stock consisted of HSA dissolved at 0.02% (w/v) in assay buffer.
To make a membrane preparation the cells were grown to approximately 80% confluence. The cells were washed twice in phosphate-buffered saline and harvested. The cells were pelleted using a brief centrifugation and the cell pellet was kept on ice. The cell pellet was homogenised with ULTRA-THURRAX™ dispersing instrument for 20-30 seconds in a suitable amount of buffer 1 (e.g., 10 ml). The homogenate was centrifuged for 15 minutes. The pellet was re-suspended (homogenised) in 10 ml buffer 2 and centrifuged. This step was repeated once more. The resulting pellet was re-suspended in buffer 2 and the protein concentration was determined. The membranes were aliquoted and stored at minus 80° C.
For the receptor binding assay in the presence of low HSA (0.005% (w/v)) 50 μl of the assay buffer was added to each well of an assay plate. Assay continued with step 3.
For the receptor binding assay in the presence of high HSA (2% (w/v)) 50 μl of the 8% (w/v) albumin stock was added to each well of an assay plate. Assay continued with step 3.
Cell membrane aliquots were thawed and diluted to their working concentration. Fifty μl were added to each well in the assay plate.
WGA SPA beads were suspended in assay buffer at 20 mg/ml. The suspension was diluted to 10 mg/ml in assay buffer just prior to addition to the assay plate. Fifty μl were added to each well in the assay plate.
A 25 μl aliquot was reserved for measuring total counts/well.
The assay plate was incubated for 2 h at 30° C.
The assay plate was centrifuged for 10 min.
The assay plate was read in a Packard TopCount NXT instrument.
Individual replicates were analysed using non-linear regression in GraphPad Prism. IC50 values were calculated by the software and reported in nM. A minimum of two replicates was measured for each sample. The reported values are averages of all of the measured values for each compound.
In the case of `CC[C@H](C)[C@H](NC(=O)[C@H](Cc1ccccc1)NC(=O)[C@H](CCC(=O)O)NC(=O)[C@H](CCCNC(=N)N)NC(=O)[C@H](C)NC(=O)[C@H](C)NC(=O)[C@H](CCC(N)=O)NC(=O)[C@H](CCC(=O)O)NC(=O)[C@H](CCC(=O)O)NC(=O)[C@H](CC(C)C)NC(=O)[C@H](Cc1ccc(O)cc1)NC(=O)[C@H](CO)NC(=O)[C@H](CO)NC(=O)[C@@H](NC(=O)[C@H](CC(=O)O)NC(=O)[C@H](CO)NC(=O)[C@@H](NC(=O)[C@H](Cc1ccccc1)NC(=O)[C@@H](NC(=O)CNC(=O)[C@H](CCC(=O)O)NC(=O)[C@H](Cc1c[nH]c2ccccc12)NC(=O)[C@@H](N)Cc1c[nH]cn1)[C@@H](C)O)[C@@H](C)O)C(C)C)C(=O)N[C@@H](C)C(=O)N[C@@H](Cc1c[nH]c2ccccc12)C(=O)N[C@@H](CC(C)C)C(=O)N[C@H](C(=O)N[C@@H](CCCNC(=N)N)C(=O)NCC(=O)N[C@@H](CCCCNC(=O)COCCOCCNC(=O)COCCOCCNC(=O)CC[C@H](NC(=O)CCCCCCCCCCOc1ccc(C(=O)O)cc1)C(=O)O)C(=O)N[C@@H](CCCCNC(=O)COCCOCCNC(=O)COCCOCCNC(=O)CC[C@H](NC(=O)CCCCCCCCCCOc1ccc(C(=O)O)cc1)C(=O)O)C(=O)O)C(C)C` [Example 8, N{Epsilon-36}-[2-[2-[2-[[2-[2-[2-[[(4S)-4-carboxy-4-[11-(4-carboxyphenoxy)undecanoylamino]butanoyl]amino]ethoxy]ethoxy]acetyl]amino]ethoxy]ethoxy]acetyl],N{Epsilon-37}-[2-[2-[2-[[2-[2-[2-[[(4S)-4-carboxy-4-[11-(4-carboxyphenoxy)undecanoylamino]butanoyl]amino]ethoxy]ethoxy]acetyl]amino]ethoxy]ethoxy]acetyl]-[Trp8,Glu22,Arg26,Arg34,Lys36,Lys37]-GLP-1-(7-37)-peptide] (H-HWEGTFTSDVSSYLEEQAAREFIAWLVRGK([AEEA-AEEA-γGlu-Undecanoyl(11-OPh(4-COOH))])K([AEEA-AEEA-γGlu-Undecanoyl(11-OPh(4-COOH))])-OH; N-terminus and C-terminus assumed), the IC50 – broadly, the concentration that inhibits the measured activity by half – was found to be 170 nM.

For the molecule `CC[C@H](C)[C@H](NC(=O)[C@H](Cc1ccccc1)NC(=O)[C@H](CCC(=O)O)NC(=O)[C@H](CCCNC(=N)N)NC(=O)[C@H](C)NC(=O)[C@H](C)NC(=O)[C@H](CCC(N)=O)NC(=O)[C@H](CCC(=O)O)NC(=O)[C@H](CCC(=O)O)NC(=O)[C@H](CC(C)C)NC(=O)[C@H](Cc1ccc(O)cc1)NC(=O)[C@H](CO)NC(=O)[C@H](CO)NC(=O)[C@@H](NC(=O)[C@H](CC(=O)O)NC(=O)[C@H](CO)NC(=O)[C@@H](NC(=O)[C@H](Cc1ccccc1)NC(=O)[C@@H](NC(=O)CNC(=O)[C@H](CCC(=O)O)NC(=O)[C@H](Cc1c[nH]c2ccccc12)NC(=O)[C@@H](N)Cc1c[nH]cn1)[C@@H](C)O)[C@@H](C)O)C(C)C)C(=O)N[C@@H](C)C(=O)N[C@@H](Cc1c[nH]c2ccccc12)C(=O)N[C@@H](CC(C)C)C(=O)N[C@H](C(=O)N[C@@H](CCCNC(=N)N)C(=O)NCC(=O)N[C@@H](CCCCNC(=O)COCCOCCNC(=O)COCCOCCNC(=O)CC[C@H](NC(=O)CCCCCCCCCOc1cccc(C(=O)O)c1)C(=O)O)C(=O)N[C@@H](CCCCNC(=O)COCCOCCNC(=O)COCCOCCNC(=O)CC[C@H](NC(=O)CCCCCCCCCOc1cccc(C(=O)O)c1)C(=O)O)C(=O)O)C(C)C` [Example 1, N{Epsilon-36}-[2-[2-[2-[[2-[2-[2-[[(4S)-4-carboxy-4-[10-(3-carboxyphenoxy)decanoylamino]butanoyl]amino]ethoxy]ethoxy]acetyl]amino]ethoxy]ethoxy]acetyl],N{Epsilon-37}-[2-[2-[2-[[2-[2-[2-[[(4S)-4-carboxy-4-[10-(3-carboxyphenoxy)decanoylamino]butanoyl]amino]ethoxy]ethoxy]acetyl]amino]ethoxy]ethoxy]acetyl]-[Trp8,Glu22,Arg26,Arg34,Lys36,Lys37]-GLP-1-(7-37)-peptide] (H-HWEGTFTSDVSSYLEEQAAREFIAWLVRGK([AEEA-AEEA-γGlu-Decanoyl(10-O(3-COOH-Ph))])K([AEEA-AEEA-γGlu-Decanoyl(10-O(3-COOH-Ph))])-OH), the IC50 amounted to 410 nM.

Consider `CC[C@H](C)[C@H](NC(=O)[C@H](Cc1ccccc1)NC(=O)[C@H](CCC(=O)O)NC(=O)[C@H](CCCNC(=N)N)NC(=O)[C@H](C)NC(=O)[C@H](C)NC(=O)[C@H](CCC(N)=O)NC(=O)[C@H](CCC(=O)O)NC(=O)[C@H](CCC(=O)O)NC(=O)[C@H](CC(C)C)NC(=O)[C@H](Cc1ccc(O)cc1)NC(=O)[C@H](CO)NC(=O)[C@H](CO)NC(=O)[C@@H](NC(=O)[C@H](CC(=O)O)NC(=O)[C@H](CO)NC(=O)[C@@H](NC(=O)[C@H](Cc1ccccc1)NC(=O)[C@@H](NC(=O)CNC(=O)[C@H](CCC(=O)O)NC(=O)C(C)(C)NC(=O)[C@@H](N)Cc1c[nH]cn1)[C@@H](C)O)[C@@H](C)O)C(C)C)C(=O)N[C@@H](C)C(=O)N[C@@H](Cc1c[nH]c2ccccc12)C(=O)N[C@@H](CC(C)C)C(=O)N[C@H](C(=O)N[C@@H](CCCNC(=N)N)C(=O)NCC(=O)N[C@@H](CCCCNC(=O)COCCOCCNC(=O)COCCOCCNC(=O)CC[C@H](NC(=O)CCCCCCCCCCOc1ccc(C(=O)O)cc1)C(=O)O)C(=O)N[C@@H](CCCCNC(=O)COCCOCCNC(=O)COCCOCCNC(=O)CC[C@H](NC(=O)CCCCCCCCCCOc1ccc(C(=O)O)cc1)C(=O)O)C(=O)O)C(C)C` [Comparative 8A], for which the IC50 came out at 110 nM.

Still in this test, the particulars now being: GLP-1 receptor binding Low HSA IC50 (nM), low HSA (max. 0.001% (w/v) final assay concentration).
The molecule `CC[C@H](C)[C@H](NC(=O)[C@H](Cc1ccccc1)NC(=O)[C@H](CCC(=O)O)NC(=O)[C@H](CCCNC(=N)N)NC(=O)[C@H](C)NC(=O)[C@H](C)NC(=O)[C@H](CCC(N)=O)NC(=O)[C@H](CCC(=O)O)NC(=O)[C@H](CCC(=O)O)NC(=O)[C@H](CC(C)C)NC(=O)[C@H](Cc1ccc(O)cc1)NC(=O)[C@H](CO)NC(=O)[C@H](CO)NC(=O)[C@@H](NC(=O)[C@H](CC(=O)O)NC(=O)[C@H](CO)NC(=O)[C@@H](NC(=O)[C@H](Cc1ccccc1)NC(=O)[C@@H](NC(=O)CNC(=O)[C@H](CCC(=O)O)NC(=O)[C@H](Cc1c[nH]c2ccccc12)NC(=O)[C@@H](N)Cc1c[nH]cn1)[C@@H](C)O)[C@@H](C)O)C(C)C)C(=O)N[C@@H](C)C(=O)N[C@@H](Cc1c[nH]c2ccccc12)C(=O)N[C@@H](CC(C)C)C(=O)N[C@H](C(=O)N[C@@H](CCCNC(=N)N)C(=O)NCC(=O)N[C@@H](CCCNC(=N)N)C(=O)N[C@@H](CCCCNC(=O)COCCOCCNC(=O)COCCOCCNC(=O)[C@H](CCCCNC(=O)COCCOCCNC(=O)COCCOCCNC(=O)COCCOCCNC(=O)COCCOCCNC(=O)CC[C@H](NC(=O)[C@H]1CC[C@H](CNC(=O)CCCCCCCCCCCCCCCCCCC(=O)O)CC1)C(=O)O)NC(=O)COCCOCCNC(=O)COCCOCCNC(=O)COCCOCCNC(=O)COCCOCCNC(=O)CC[C@H](NC(=O)[C@H]1CC[C@H](CNC(=O)CCCCCCCCCCCCCCCCCCC(=O)O)CC1)C(=O)O)C(=O)O)C(C)C` [Example 12] came in with an IC50 of 3.16 nM.

In turn, `CC[C@H](C)[C@H](NC(=O)[C@H](Cc1ccccc1)NC(=O)[C@H](CCC(=O)O)NC(=O)[C@H](CCCNC(=N)N)NC(=O)[C@H](C)NC(=O)[C@H](C)NC(=O)[C@H](CCC(N)=O)NC(=O)[C@H](CCC(=O)O)NC(=O)[C@H](CCC(=O)O)NC(=O)[C@H](CC(C)C)NC(=O)[C@H](Cc1ccc(O)cc1)NC(=O)[C@H](CO)NC(=O)[C@H](CO)NC(=O)[C@@H](NC(=O)[C@H](CC(=O)O)NC(=O)[C@H](CO)NC(=O)[C@@H](NC(=O)[C@H](Cc1ccccc1)NC(=O)[C@@H](NC(=O)CNC(=O)[C@H](CCC(=O)O)NC(=O)C(C)(C)NC(=O)[C@@H](N)Cc1c[nH]cn1)[C@@H](C)O)[C@@H](C)O)C(C)C)C(=O)N[C@@H](C)C(=O)N[C@@H](Cc1c[nH]c2ccccc12)C(=O)N[C@@H](CC(C)C)C(=O)N[C@H](C(=O)N[C@@H](CCCNC(=N)N)C(=O)NCC(=O)N[C@@H](CCCCNC(=O)COCCOCCNC(=O)COCCOCCNC(=O)CC[C@H](NC(=O)CCCCCCCCCCOc1ccc(C(=O)O)cc1)C(=O)O)C(=O)N[C@@H](CCCCNC(=O)COCCOCCNC(=O)COCCOCCNC(=O)CC[C@H](NC(=O)CCCCCCCCCCOc1ccc(C(=O)O)cc1)C(=O)O)C(=O)O)C(C)C` [Comparative 8A] gave an IC50 of 0.245 nM.

On to `CC[C@H](C)[C@H](NC(=O)[C@H](Cc1ccccc1)NC(=O)[C@H](CCC(=O)O)NC(=O)[C@H](CCCNC(=N)N)NC(=O)[C@H](C)NC(=O)[C@H](C)NC(=O)[C@H](CCC(N)=O)NC(=O)[C@H](CCC(=O)O)NC(=O)[C@H](CCC(=O)O)NC(=O)[C@H](CC(C)C)NC(=O)[C@H](Cc1ccc(O)cc1)NC(=O)[C@H](CO)NC(=O)[C@H](CO)NC(=O)[C@@H](NC(=O)[C@H](CC(=O)O)NC(=O)[C@H](CO)NC(=O)[C@@H](NC(=O)[C@H](Cc1ccccc1)NC(=O)[C@@H](NC(=O)CNC(=O)[C@H](CCC(=O)O)NC(=O)[C@H](Cc1c[nH]c2ccccc12)NC(=O)[C@@H](N)Cc1c[nH]cn1)[C@@H](C)O)[C@@H](C)O)C(C)C)C(=O)N[C@@H](C)C(=O)N[C@@H](Cc1c[nH]c2ccccc12)C(=O)N[C@@H](CC(C)C)C(=O)N[C@H](C(=O)N[C@@H](CCCNC(=N)N)C(=O)NCC(=O)N[C@@H](CCCNC(=N)N)C(=O)N[C@@H](CCCCNC(=O)COCCOCCNC(=O)COCCOCCNC(=O)CN(CCCNC(=O)COCCOCCNC(=O)COCCOCCNC(=O)COCCOCCNC(=O)COCCOCCNC(=O)CC[C@H](NC(=O)[C@H]1CC[C@H](CNC(=O)CCCCCCCCCCCCCCCCCCC(=O)O)CC1)C(=O)O)CCCNC(=O)COCCOCCNC(=O)COCCOCCNC(=O)COCCOCCNC(=O)COCCOCCNC(=O)CC[C@H](NC(=O)[C@H]1CC[C@H](CNC(=O)CCCCCCCCCCCCCCCCCCC(=O)O)CC1)C(=O)O)C(=O)O)C(C)C` [Example 13], for which the IC50 was determined as 0.818 nM.

The values are drawn from patent US10946074B2, “GLP-1 derivatives and uses thereof” (Novo Nordisk A/S, priority 2016, dated 2021).
